Measured values from US7763615B2, “Ecteinascidin analogs for use as antitumour agents” (priority 2001, dated 2010).
Read-outs that look alike come from different tables or passages of the source.

Key:
HT29 = assay: cells; format: cell-based; details: HT29, 48 hours exposure, SRB; for CC50: read-out: LC50 (the source's name)
Excerpt: (§1) The finality of these assays is to interrupt the growth of a “in vitro” tumor cell culture by means of a continued exhibition of the cells to the sample to be testing.
(§2) A colorimetric type of assay, using sulphorhodamine B (SRB) reaction has been adapted for a quantitative measurement of cell growth and viability [following the technique described by Philip Skehan, et al. (1990), New colorimetric cytotoxicity assay for anticancer drug screening, J. Natl. Cancer Inst., 82:1107-1112]
(§3) This form of the assay employs 96 well cell culture microplates of 9 mm diameter (Faircloth, 1988; Mosmann, 1983). Most of the cell lines are obtained from American Type Culture Collection (ATCC) derived from different human cancer types.
(§4) Cells are maintained in RPMI 1640 10% FBS, supplemented with 0.1 g/l penicillin and 0.1 g/l streptomycin sulphate and then incubated at 37° C., 5% CO2 and 98% humidity. For the experiments, cells were harvested from subconfluent cultures using trypsin and resuspended in fresh medium before plating.
(§5) Cells are seeded in 96 well microtiter plates, at 5×10^3 cells per well in aliquots of 195 μl medium, and they are allowed to attach to the plate surface by growing in drug free medium for 18 hours. Afterward, samples are added in aliquots of 5 μl in a ranging from 10 to 10^−8 μg/ml, dissolved in DMSO/EtOH/PBS (0.5:0.5:99). After 48 hours exposure, the antitumor effect are measured by the SRB methodology: cells are fixed by adding 50 μl of cold 50% (wt/vol) trichloroacetic acid (TCA) and incubating for 60 minutes at 4° C. Plates are washed with deionized water and dried. One hundred μl of SRB solution (0.4% wt/vol in 1% acetic acid) is added to each microtiter well and incubated for 10 minutes at room temperature. Unbound SRB is removed by washing with 1% acetic acid. Plates are air dried and bound stain is solubilized with Tris buffer. Optical densities are read on a automated spectrophotometric plate reader at a single wavelength of 490 nm.
(§6) The values for mean+/− SD of data from triplicate wells are calculated. Some parameters for cellular responses can be calculated: GI=growth inhibition, TGI=total growth inhibition (cytostatic effect) and LC=cell killing (cytotoxic effect).

A549 = assay: cells; format: cell-based; details: A549, 48 hours exposure, SRB; for GI50: read-out: GI50; for CC50: read-out: LC50 (the source's name); for IC (TGI): read-out: TGI
Excerpt: as §1, §2, §3, §4, §5, §6

Q: For `COc1c(C)cc2c(c1O)[C@@H]1C3[C@@H]4SC[C@]5(NCCc6c5[nH]c5c(C)cccc65)C(=O)COC[C@@H](c5c6c(c(C)c(OC(C)=O)c54)OCO6)N3[C@@H](C#N)[C@H](C2)N1C` (stereo partly drawn) [Compound 11], which GI50 (HT29; Homo sapiens, HT-29, 48 h) is on record?
A: 30.9 nM

Q: And the IC (TGI) (HT29; Homo sapiens, HT-29, 48 h)?
A: 129 nM

Q: What about the CC50 (HT29; Homo sapiens, HT-29, 48 h) of the same compound?
A: 12900 nM

Q: What about the GI50 (A549; Homo sapiens, A549, 48 h) of the same compound?
A: 18.9 nM

Q: And the CC50 (A549; Homo sapiens, A549, 48 h)?
A: 129 nM

Q: What about the IC (TGI) (A549; Homo sapiens, A549, 48 h) of the same compound?
A: 50 nM

Q: With `COc1c(C)cc2c(c1O)[C@@H]1C3[C@@H]4SC[C@]5(NC(C)Cc6c5[nH]c5ccc(O)cc65)C(=O)COC[C@@H](c5c6c(c(C)c(OC(C)=O)c54)OCO6)N3[C@@H](C#N)[C@H](C2)N1C` (stereo partly drawn) [Compound 12] as the compound, how does the GI50 (HT29) read?
A: 13.7 nM

Q: What about the TGI (HT29) of the same compound?
A: 1.26E−07 Molar

Q: What about the CC50 (HT29; Homo sapiens, HT-29, 48 h) of the same compound?
A: 12600 nM

Q: And the GI50 (A549; Homo sapiens, A549, 48 h)?
A: 7.28 nM

Q: And the CC50 (A549; Homo sapiens, A549, 48 h)?
A: 12600 nM

Q: And the IC (TGI) (A549; Homo sapiens, A549, 48 h)?
A: 83.5 nM

Q: For `COc1c(C)cc2c(c1O)[C@@H]1C3[C@@H]4SC[C@]5(NC(C)Cc6c5[nH]c5ccc(O)cc65)C(=O)COC[C@@H](c5c6c(c(C)c(OC(C)=O)c54)OCO6)N3[C@@H](C#N)[C@H](C2)N1C` (stereo partly drawn) [Compound 13], which GI50 (HT29) is on record?
A: 333 nM

Q: And the TGI (HT29)?
A: 1.26E−06 Molar

Q: And the CC50 (HT29)?
A: 12600 nM

Q: What about the TGI (A549) of the same compound?
A: 6.79E−08 Molar

Q: What about the GI50 (A549) of the same compound?
A: 6.31 nM

Q: And the CC50 (A549)?
A: 12600 nM

Q: With `COc1c(C)cc2c(c1O)[C@@H]1C3[C@@H]4SC[C@]5(C(=O)COC[C@@H](c6c7c(c(C)c(OC(C)=O)c64)OCO7)N3[C@@H](C#N)[C@H](C2)N1C)c1[nH]c2ccccc2c1CCN5C` (stereo partly drawn) [Compound 15] as the compound, how does the GI50 (HT29) read?
A: 4.16 nM

Q: And the TGI (HT29)?
A: 1.31E−08 Molar

Q: And the CC50 (HT29; Homo sapiens, HT-29, 48 h)?
A: 13100 nM

Q: What about the TGI (A549) of the same compound?
A: 1.31E−08 Molar

Q: And the GI50 (A549)?
A: 4.78 nM

Q: What about the CC50 (A549) of the same compound?
A: 1270 nM

Q: How did the TGI (HT29) turn out when `COc1c(C)cc2c(c1O)[C@@H]1C3[C@@H]4SC[C@]5(NC(C)Cc6c5[nH]c5ccc(F)cc65)C(=O)COC[C@@H](c5c6c(c(C)c(OC(C)=O)c54)OCO6)N3[C@@H](C#N)[C@H](C2)N1C` (stereo partly drawn) [Compound 16] was run?
A: 1.28E−07 Molar

Q: What about the GI50 (HT29; Homo sapiens, HT-29, 48 h) of the same compound?
A: 42.8 nM

Q: What about the CC50 (HT29; Homo sapiens, HT-29, 48 h) of the same compound?
A: 12800 nM

Q: And the TGI (A549)?
A: 1.28E−07 Molar

Q: What about the GI50 (A549) of the same compound?
A: 36.7 nM

Q: And the CC50 (A549; Homo sapiens, A549, 48 h)?
A: 4440 nM

Q: Which GI50 (HT29) does the source give for `COc1c(C)cc2c(c1O)[C@@H]1C3[C@@H]4SC[C@]5(NC(C)Cc6c5[nH]c5ccc(F)cc65)C(=O)COC[C@@H](c5c6c(c(C)c(OC(C)=O)c54)OCO6)N3[C@@H](C#N)[C@H](C2)N1C` (stereo partly drawn) [Compound 17] here?
A: 22.2 nM

Q: What about the TGI (HT29) of the same compound?
A: 1.28E−08 Molar

Q: And the CC50 (HT29)?
A: 12800 nM

Q: And the TGI (A549)?
A: 4.41E−08 Molar

Q: And the GI50 (A549)?
A: 5.39 nM

Q: What about the CC50 (A549) of the same compound?
A: 6670 nM

Q: `COc1c(C)cc2c(c1O)[C@@H]1C3[C@@H]4SC[C@]5(NC(C)Cc6c5[nH]c5ccccc65)C(=O)COC[C@@H](c5c6c(c(C)c(OC(C)=O)c54)OCO6)N3[C@@H](C#N)[C@H](C2)N1C` (stereo partly drawn) [Compound 18] was tested. Which GI50 (HT29; Homo sapiens, HT-29, 48 h) did it give?
A: 5.62 nM

Q: What about the IC (TGI) (HT29; Homo sapiens, HT-29, 48 h) of the same compound?
A: 129 nM

Q: What about the CC50 (HT29; Homo sapiens, HT-29, 48 h) of the same compound?
A: 12900 nM

Q: What about the TGI (A549) of the same compound?
A: 1.29E−07 Molar

Q: What about the GI50 (A549) of the same compound?
A: 6.77 nM

Q: What about the CC50 (A549; Homo sapiens, A549, 48 h) of the same compound?
A: 12900 nM

Q: With `COc1c(C)cc2c(c1O)[C@@H]1C3[C@@H]4SC[C@]5(NC(C)Cc6c5[nH]c5ccccc65)C(=O)COC[C@@H](c5c6c(c(C)c(OC(C)=O)c54)OCO6)N3[C@@H](C#N)[C@H](C2)N1C` (stereo partly drawn) [Compound 19] as the compound, how does the GI50 (HT29) read?
A: 4.45 nM

Q: What about the TGI (HT29) of the same compound?
A: 1.29E−07 Molar

Q: What about the CC50 (HT29) of the same compound?
A: 12900 nM

Q: What about the TGI (A549) of the same compound?
A: 1.29E−08 Molar

Q: What about the GI50 (A549) of the same compound?
A: 3.27 nM

Q: And the CC50 (A549)?
A: 12900 nM

Q: With `CCCC(=O)Oc1c(OC)c(C)cc2c1[C@@H]1C3[C@@H]4SC[C@]5(NCCc6c5[nH]c5ccccc65)C(=O)COC[C@@H](c5c6c(c(C)c(OC(C)=O)c54)OCO6)N3[C@@H](C#N)[C@H](C2)N1C` (stereo partly drawn) [Compound 20] as the compound, how does the GI50 (HT29; Homo sapiens, HT-29, 48 h) read?
A: 596 nM

Q: And the IC (TGI) (HT29; Homo sapiens, HT-29, 48 h)?
A: 12000 nM

Q: And the CC50 (HT29; Homo sapiens, HT-29, 48 h)?
A: 12000 nM

Q: And the GI50 (A549; Homo sapiens, A549, 48 h)?
A: 330 nM

Q: What about the CC50 (A549; Homo sapiens, A549, 48 h) of the same compound?
A: 6770 nM

Q: And the IC (TGI) (A549; Homo sapiens, A549, 48 h)?
A: 1200 nM

Q: With `COc1c(C)cc2c(c1OC(=O)OC(C)(C)C)[C@@H]1C3[C@@H]4SC[C@]5(NCCc6c5[nH]c5ccccc65)C(=O)COC[C@@H](c5c6c(c(C)c(OC(C)=O)c54)OCO6)N3[C@@H](C#N)[C@H](C2)N1C` (stereo partly drawn) [Compound 21] as the compound, how does the GI50 (HT29; Homo sapiens, HT-29, 48 h) read?
A: 1180 nM

Q: What about the IC (TGI) (HT29; Homo sapiens, HT-29, 48 h) of the same compound?
A: 11600 nM

Q: And the CC50 (HT29; Homo sapiens, HT-29, 48 h)?
A: 11600 nM

Q: And the GI50 (A549; Homo sapiens, A549, 48 h)?
A: 758 nM

Q: What about the CC50 (A549; Homo sapiens, A549, 48 h) of the same compound?
A: 11600 nM

Q: And the IC (TGI) (A549; Homo sapiens, A549, 48 h)?
A: 6990 nM

Q: `C=COC(=O)Oc1c(OC)c(C)cc2c1[C@@H]1C3[C@@H]4SC[C@]5(NCCc6c5[nH]c5ccccc65)C(=O)COC[C@@H](c5c6c(c(C)c(OC(C)=O)c54)OCO6)N3[C@@H](C#N)[C@H](C2)N1C` (stereo partly drawn) [Compound 22] was tested. Which GI50 (HT29; Homo sapiens, HT-29, 48 h) did it give?
A: 120 nM

Q: What about the IC (TGI) (HT29; Homo sapiens, HT-29, 48 h) of the same compound?
A: 5700 nM

Q: What about the CC50 (HT29; Homo sapiens, HT-29, 48 h) of the same compound?
A: 12000 nM

Q: And the GI50 (A549; Homo sapiens, A549, 48 h)?
A: 39.3 nM

Q: And the CC50 (A549; Homo sapiens, A549, 48 h)?
A: 12000 nM

Q: What about the IC (TGI) (A549; Homo sapiens, A549, 48 h) of the same compound?
A: 120 nM
